The values below come from ChEMBL document CHEMBL1795334, “Towards predictive inhibitor design for the EGFR autophosphorylation activity” (Eur J Med Chem, 2008).

Epidermal growth factor receptor, sequence (P00533 whole entry): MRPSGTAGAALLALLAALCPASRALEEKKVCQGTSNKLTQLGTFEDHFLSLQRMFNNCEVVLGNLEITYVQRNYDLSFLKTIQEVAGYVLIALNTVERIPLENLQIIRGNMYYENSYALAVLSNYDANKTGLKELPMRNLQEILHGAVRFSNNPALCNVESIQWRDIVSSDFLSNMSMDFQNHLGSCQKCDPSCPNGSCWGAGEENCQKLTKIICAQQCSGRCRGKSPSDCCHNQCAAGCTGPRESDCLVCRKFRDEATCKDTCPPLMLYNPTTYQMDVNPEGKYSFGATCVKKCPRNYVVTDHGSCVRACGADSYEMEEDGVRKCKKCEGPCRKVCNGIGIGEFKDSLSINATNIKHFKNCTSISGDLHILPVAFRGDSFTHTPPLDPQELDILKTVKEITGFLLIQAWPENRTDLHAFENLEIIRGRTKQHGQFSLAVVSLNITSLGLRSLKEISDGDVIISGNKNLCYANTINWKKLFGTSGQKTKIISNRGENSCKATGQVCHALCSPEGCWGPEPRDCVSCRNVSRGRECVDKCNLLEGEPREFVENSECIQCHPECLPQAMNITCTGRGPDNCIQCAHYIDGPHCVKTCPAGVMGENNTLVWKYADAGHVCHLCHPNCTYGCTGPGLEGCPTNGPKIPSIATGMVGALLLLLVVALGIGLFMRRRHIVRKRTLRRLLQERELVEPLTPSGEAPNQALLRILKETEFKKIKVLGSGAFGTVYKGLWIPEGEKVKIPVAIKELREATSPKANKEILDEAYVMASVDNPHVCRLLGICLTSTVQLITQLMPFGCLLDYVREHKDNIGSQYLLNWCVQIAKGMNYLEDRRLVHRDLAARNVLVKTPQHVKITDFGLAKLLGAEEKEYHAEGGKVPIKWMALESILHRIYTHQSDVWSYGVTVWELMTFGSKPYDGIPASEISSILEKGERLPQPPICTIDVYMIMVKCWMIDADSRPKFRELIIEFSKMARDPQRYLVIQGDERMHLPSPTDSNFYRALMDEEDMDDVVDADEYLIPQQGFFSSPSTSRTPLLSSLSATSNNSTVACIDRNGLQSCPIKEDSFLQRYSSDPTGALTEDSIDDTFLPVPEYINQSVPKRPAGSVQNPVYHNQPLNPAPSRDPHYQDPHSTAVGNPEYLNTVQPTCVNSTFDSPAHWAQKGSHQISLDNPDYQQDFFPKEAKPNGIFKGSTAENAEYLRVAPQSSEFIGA

The test concerns the target Epidermal growth factor receptor (Homo sapiens, UniProt P00533). Description: Inhibition autophosphorylation of EGFR in human DiFi cells after 2 hrs by ELISA. It is filed as cell-based. A general note: ELISA stands for enzyme-linked immunosorbent assay.
As for `COc1cc2ncc(C#N)c(Nc3cccc(Cl)c3)c2cc1OC`, 0.182 µM corresponded to half-maximal inhibition (IC50). As to `COc1cc2ncc(C(=O)O)c(Nc3cccc(Br)c3)c2cc1OC`, the IC50 (in general, the concentration needed to halve the response being measured) was 33.9 µM. Next, `COc1cc2ncc(C#N)c(Nc3cccc(C(C)C)c3)c2cc1OC`: 61.7 µM; `COc1cc2c(C#N)cnc(Nc3cccc(Cl)c3)c2cc1OC`: 89.1 µM; `COc1cc2ncc(C#N)c(Nc3cccc(N)c3)c2cc1OC`: 0.813 µM.

`COc1cc2ncc(C#N)c(Nc3cccc(NC(C)=O)c3)c2cc1OC`: inhibition was half-maximal at 69.2 µM (IC50). In the case of `COc1cc2ncc(C=O)c(Nc3cccc(Br)c3)c2cc1OC` it was 3.39 µM; in that of `COc1cc2ncc(C#N)c(Nc3cccc(C(N)=O)c3)c2cc1OC`, 7.76 µM. `COc1cc2ncc(C#N)c(Nc3cccc(Br)c3C)c2cc1OC` gave an IC50 of 0.832 µM.

On to `COc1cc2ncc(C#N)c(Nc3cccc(SC)c3)c2cc1OC`, for which the IC50 was 0.759 µM.

In turn, `COc1cc2ncc(C#N)c(Nc3ccc(O)c(Cl)c3)c2cc1OC` gave an IC50 of 9.12 µM. Next, `COc1cc2ncc(C#N)c(Nc3ccc(Cl)cc3F)c2cc1OC`: 13.8 µM; `COc1cc2ncc(C#N)c(Nc3cccc(O)c3)c2cc1OC`: 6.31 µM; `COc1cc2ncc(C#N)c(Nc3ccc(Br)c(C)c3)c2cc1OC`: 0.617 µM. Take `COc1cc2ncc(C#N)c(Nc3cccc(C#N)c3)c2cc1OC`: the IC50 was 14.1 µM. `COc1cc2ncc(C#N)c(Nc3ccccc3Br)c2cc1OC` had an IC50 of 4.17 µM. In the case of `CCOc1cc2ncc(C#N)c(Nc3ccc(F)c(Cl)c3)c2cc1OCC` it was 0.977 µM. In the case of `CCOc1cc2c(Nc3cccc(Br)c3)c(C#N)cnc2cc1OC` it was 33.1 µM. On to `COc1cc2ncc(C#N)c(Nc3ccc(F)cc3)c2cc1OC`, for which half-maximal inhibition (IC50) was put at 47.9 µM.

Take `CCOc1cc2ncc(C#N)c(Nc3cccc(Br)c3)c2cc1OCC`: the IC50 is 0.417 µM. In the case of `COCOc1cc2ncc(C#N)c(Nc3cccc(Br)c3)c2cc1OCOC` it was 6.76 µM.

Compound `COc1cc2ncc(C#N)c(Nc3ccc(C)c(Cl)c3)c2cc1OC` had an IC50 of 1.48 µM. Regarding `CCOc1cc2ncc(C#N)c(Nc3cccc(Br)c3)c2cc1OC`, the IC50 is 21.4 µM. In the case of `COc1cc2ncc(C#N)c(Nc3ccc(C)c(Br)c3)c2cc1OC` it was 1.78 µM.
